Here are results for 34 compounds from a melting point compilation (Tetko et al.; mined from patent text by program, amines drawn as free bases though some values may be those of a salt).

Structures are written as SMILES.

Turning to `Cc1ccc(-n2c(-c3sc(Nc4ccccc4)nc3-c3ccccc3)nc3ccccc3c2=O)cc1`, the melting point (usually the temperature, or range, at which the solid turns liquid) was in the range of 225 to 228 °C. `CC(C)(C)N(NC(=O)c1cccs1)C(=O)c1ccccc1`: the melting point is greater than 190 °C.

With `CC(=O)COc1ccc(C2CCCCC2)cc1`, the melting point is 58 °C.

`CC(C)(C)OC(=O)COc1ccc(C(=O)NNC(=O)c2ccc(CNC(=O)OC(C)(C)C)cc2)cc1OCC(=O)OC(C)(C)C` gave a melting point of 156 to 158 °C. In the case of `O=c1nc(-c2cccc(S(=O)Cc3ccccc3)n2)sc2ccccc12` (centres undefined), the melting point lay in the range of 208 to 210 °C. In turn, `COc1ccc2c(cc3n2Cc2ccccc2-3)n1` showed a melting point of 192 to 193 °C. `O=C(NCc1cn(-c2ccc(N3CCSCC3)c(F)c2)nn1)c1cnccn1` displayed a melting point of 216 to 218 °C. Turning to `COC(=O)c1ccc(OCCCN(C(=O)CCC(=O)Nc2ccc(Cl)cc2)c2ccc(Cl)cc2)cc1`, the melting point lay in the range of 128 to 130 °C.

The compound `O=C(O)COc1ccc(C(=O)NCC2CCN(c3ccncc3)CC2)cc1` displayed a melting point of 84 to 86 °C. Regarding `COCc1nc2nccnc2c(=O)[nH]1`, the melting point is 187 to 189 °C. Take `COc1cc(OC)nc(N2CCN(Cc3ccc(CNC(C)=O)cc3)CC2)n1`: the melting point lay within 130 to 131 °C. `CCc1ncnc(N[C@H]2CC[C@@H](C#N)CC2)c1Cl` returned a melting point of 131 to 132 °C. For `COc1cc2c(cc1/C=C/CCO)[nH]c1cc(-c3ccccc3Cl)c3c(c12)C(=O)NC3=O`, the melting point lay within 271 to 275 °C.

Compound `COCCn1c(Oc2ccc(-n3c4ncccc4n4ccnc34)cc2)nc2cccnc21` gave a melting point of 178 to 182 °C. Regarding `CCC(CCOc1ccc(-c2ccc(C(=O)O)cc2)cc1-c1ccc2c(c1)C(C)(C)CCC2(C)C)NC1CC1` (centres undefined), the melting point amounted to 161 °C. On to `O=C(NN1CCCCCC1)c1nc(-c2ccc(Cl)cc2Cl)c(-c2ccc(Cl)cc2)s1`, for which the melting point was 185 to 186 °C. Next, `O=P(O)(O)Cc1ccc(CP(=O)(O)O)cc1`: greater than 300 °C; `CCC1CCC(=O)C=C1c1ccc(OCC(=O)OC(C)(C)C(=O)O)c(Cl)c1Cl` (centres undefined): 167 to 168 °C. In turn, `COc1ccc(-c2nc(Cl)n(C)c2-c2ccc(OC)cc2)cc1` had a melting point of 132 to 133 °C.

On to `CN1CCCC1=NC(=O)Nc1ccc(OCc2ccccc2)c(Cl)c1`, for which the melting point was in the range of 115 to 117 °C. Compound `O=[N+]([O-])c1cnccc1N1CCc2ccccc21` had a melting point of 159 to 160 °C.

Regarding `COc1cc2c(cc1OC)C(c1ccccc1)N1C(=O)CNC(=O)C1C2` (centres undefined), the melting point lay within 265 to 267 °C. On to `COc1ccc(/C=C/C(=O)c2ccc(OCc3ccccc3)cc2OCc2ccccc2)c(OC)c1C`, for which the melting point came to 125 °C. Compound `CCNC=C(C(=O)C=Cc1ccc2c(c1)OCO2)C(=O)OC` returned a melting point of 124 to 125 °C.

On to `COC1=C(c2ccccc2CSc2nc3ccccc3s2)C(=O)OC1`, for which the melting point lay within 81 to 82 °C.

With `Nc1nc2ccccc2c2c1ncn2CCCCNC(=O)Oc1cccc2ccccc12`, the melting point was in the range of 89 to 92 °C. Consider `CC(=O)NC[C@H]1CN(c2ccc3c(c2)CC(C)N3C(=O)OCc2ccccc2)C(=O)O1` (some centres undefined), for which the melting point lay within 170 to 175 °C. Compound `CC(C)(C)OC(=O)N1CCC(=CS(=O)(=O)NC(=O)c2cc(C(F)(F)F)cc(C(F)(F)F)c2)CC1` returned a melting point of 132 to 136 °C.

Turning to `Cc1c(SCCCN2CCN(Cc3ccc(Cl)s3)CC2)ccnc1CSc1nc2cc(F)c(F)cc2[nH]1`, the melting point was 79 to 82 °C. For the compound `CCCCCCCCCCC(O)c1ccc2oc([N+](=O)[O-])c(-c3ccccc3)c2c1` (centres undefined), the melting point fell in the range of 84 to 85 °C.

The compound `CNC(=O)[C@H]1CN(c2ccc3c(c2)oc(=O)n3C(C)C)C(=O)O1` showed a melting point of 216 to 218 °C. Compound `O=C(Nc1ncc[nH]1)c1cnc2c(C(F)(F)F)cccc2c1O` returned a melting point of 211 °C. Consider `CC1CC(=O)c2cccc(C(N)=S)c21` (centres undefined), for which the melting point was in the range of 198 to 200 °C. Next, `CCc1cc(C)cc(C)c1CC(=O)O`: 128 to 129 °C.
